Results published in US20020019527A1 (priority 2000, published 2002).
Where a name gives a salt, the structure may show the parent alone. Read-outs that look alike come from different tables or passages of the source.

Biological target: T1, Farnesyltransferase (FTase) (Bos taurus, UniProt P29702+P49355)
T1 construct: precipitation from a beef brain homogenate; from tissue; host or cells: bovine brain
Experiment: Farnesyltransferase inhibition (scintillation proximity assay, [3H]-FPP / biotin-K-ras peptide)
Type: biochemical, bovine
Protocol: Farnesyltransferase (FTase) or geranylgeranyltransferase I (GGTase I) fractions were isolated from bovine brains and purified by a series of methods which separate FTase from GGTase I and GGTase I from GGTase II. The methods involved a partial purification of all three enzymes by precipitation from a beef brain homogenate with 30% to 50% saturated […] followed by chromatography on DEAE Sepharose. […] The catalytic purity of each enzyme was assayed separately with substrate acceptor proteins specific for that enzyme. After quickly freezing in liquid nitrogen, the various prenyl transferases were stored at −80° C.
The quenched reactions stood for 1 hour before analysis in a Packard TopCount scintillation counter. Purified compounds were dissolved in 100% ethanol and diluted 10-fold into the assay.

[1] = compound at 10^−6 M, bovine FTase, 37° C., 30 minutes

T1 sequence (P49355 whole entry, one chain of several): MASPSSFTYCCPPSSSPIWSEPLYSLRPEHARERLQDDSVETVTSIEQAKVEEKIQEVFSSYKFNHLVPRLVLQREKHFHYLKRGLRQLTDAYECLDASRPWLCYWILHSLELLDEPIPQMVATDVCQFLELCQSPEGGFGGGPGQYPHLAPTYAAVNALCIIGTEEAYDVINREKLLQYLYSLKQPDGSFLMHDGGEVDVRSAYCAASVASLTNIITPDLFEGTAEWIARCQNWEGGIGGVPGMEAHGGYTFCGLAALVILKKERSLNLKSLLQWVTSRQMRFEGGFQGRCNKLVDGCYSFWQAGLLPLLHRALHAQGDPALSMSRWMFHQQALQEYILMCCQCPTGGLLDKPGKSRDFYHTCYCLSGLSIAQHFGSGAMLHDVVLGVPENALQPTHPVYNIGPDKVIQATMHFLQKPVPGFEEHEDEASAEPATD

Structure (SMILES)	inhibition at 1 µM [1] [%]	also measured
Cn1cncc1C(OCc1ccccc1)c1ccc(C#N)c(-c2ccsc2)c1 (stereo not shown) [Example 90, 4-((benzyloxy)(1-methyl-1H-imidazol-5-yl)methyl)-2-(3-thienyl)benzonitrile hydrochloride]	90	–
Cc1ccccc1-c1cc(C(OCc2ccc(C(N)=O)cc2)c2cncn2C)ccc1C#N (stereo not shown) [Example 188, 4-(((6-cyano-2′-methyl(1,1′-biphenyl)-3-yl)(1-methyl-1H-imidazol-5-yl)methoxy)methyl)benzamide]	92	–
Cc1ccccc1-c1cc(C(OCc2cccc(F)c2)c2cncn2C)ccc1C#N (stereo not shown) [Example 136, 5-(((3-fluorobenzyl)oxy)(1-methyl-1H-imidazol-5-yl)methyl)-2′-methyl(1,1′-biphenyl)-2-carbonitrile hydrochloride]	95	–
Cc1ccccc1-c1cc(C(OCc2ccc(C#N)cc2)c2cncn2C)ccc1C#N (stereo not shown) [Example 116, 5-(((4-cyanobenzyl)oxy)(1-methyl-1H-imidazol-5-yl)methyl)-2′-methyl(1,1′-biphenyl)-2-carbonitrile hydrochloride]	99	–
N#Cc1ccc(COC(c2ccc(C#N)c(-c3cccc4ccccc34)c2)c2cnc[nH]2)cc1 (stereo not shown) [Example 46, 4-(((4-cyanobenzyl)oxy)(1H-imidazol-5-yl)methyl)-2-(1-naphthyl)benzonitrile hydrochloride]	100	–
Cc1ccccc1-c1cc(C(OCc2cccc(I)c2)c2cncn2C)ccc1C#N (stereo not shown) [Example 117, 5-(((3-iodobenzyl)oxy)(1-methyl-1H-imidazol-5-yl)methyl)-2′-methyl(1,1′-biphenyl)-2-carbonitrile hydrochloride]	90	–
Cc1ccccc1-c1cc(C(OCc2ccc(C(C)(C)C)cc2)c2cncn2C)ccc1C#N (stereo not shown) [Example 115, 5-(((4-(tert-butyl)benzyl)oxy)(1-methyl-1H-imidazol-5-yl)methyl)-2′-methyl(1,1′-biphenyl)-2-carbonitrile hydrochloride]	89	–
Cn1cncc1C(NCc1ccc(C#N)c(Cl)c1)c1ccc(C#N)c(-c2cccc3ccccc23)c1 (stereo not shown) [Example 35, 4-(((3-chloro4-cyanobenzyl)amino)(1-methyl-1H-imidazol-5-yl)methyl)-2-(1-naphthyl)benzonitrile dihydrochloride]	100	–
Cc1ccccc1-c1cc(C(O)(C#Cc2ccccc2)c2cncn2C)ccc1C#N (stereo not shown) [Example 109, 5-(1-hydroxy-1-(1-methyl-1H-imidazol-5-yl)-3-phenyl-2-propynyl)-2′-methyl(1,1′-biphenyl)-2-carbonitrile]	100	–
Cc1ccccc1-c1cc(C(OCc2cccc(OC(F)(F)F)c2)c2cncn2C)ccc1C#N.Cl (stereo not shown) [Example 143]	–	% Inhibition at 10^−6M: 97%
Cc1cccc(-c2cc(C(OCc3ccc(C#N)cn3)c3cncn3C)ccc2C#N)c1C (stereo not shown) [Example 281, 6-(((6-cyano-2′,3′-dimethyl(1,1′-biphenyl)-3-yl)(1-methyl-1H-imidazol-5-yl)methoxy)methyl)nicotinonitrile dihydrochloride]	98	–
Cn1cncc1C(OCc1ccc(C#N)cc1)c1cnc(C#N)c(-c2cccc3ccccc23)c1 (stereo not shown) [Example 275, 5-(((4-cyanobenzyl)oxy)(1-methyl-1H-imidazol-5-yl)methyl)-3-(1-naphthyl)-2-pyridinecarbonitrile dihydrochloride]	100	–
Cc1ccccc1-c1cc(C(OCc2ccc(F)c(F)c2)c2cncn2C)ccc1C#N (stereo not shown) [Example 147, 5-(((3,4-difluorobenzyl)oxy)(1-methyl-1H-imidazol-5-yl)methyl)-2′-methyl(1,1′-biphenyl)-2-carbonitrile hydrochloride]	96	–
Cc1ccccc1-c1cc(N(Cc2ccccc2)Cc2cccnc2)ccc1C#N [Example 217, 5-(benzyl(3-pyridinylmethyl)amino)-2′-methyl(1,1′-biphenyl)-2-carbonitrile]	71	–
Cc1ccccc1-c1cc(C(O)c2cncs2)ccc1C#N (stereo not shown) [Example 214, 5-(hydroxy(1,3-thiazol-5-yl)methyl)-2′-methyl(1,1′-biphenyl)-2-carbonitrile]	20	–
Cn1cncc1C(OCc1ccc(C#N)cc1)c1ccc(C#N)c(-c2ccc(Cl)cc2Cl)c1 (stereo not shown) [Example 202, 2′,4′-dichloro-5-(((4-cyanobenzyl)oxy)(1-methyl-1H-imidazol-5-yl)methyl)(1,1′-biphenyl)-2-carbonitrile hydrochloride]	92	–
Cn1cncc1CN(Cc1ccc(C(=O)O)cc1)Cc1ccc(C#N)c(-c2cccc3ccccc23)c1 [Example 193, 4-(((4-cyano-3-(1-naphthyl)benzyl)((1-methyl-1H-imidazol-5-yl)methyl)amino)methyl)benzoic acid dihydrochloride]	91	–

Structure (SMILES)	inhibition at 1 µM [1] [%]	also measured
CN(C)C(=O)c1ccc(COC(c2ccc(C#N)c(-c3cccc4ccccc34)c2)c2cncn2C)cc1 (stereo not shown) [Example 70, 4-(((4-cyano-3-(1-naphthyl)phenyl)(1-methyl-1H-imidazol-5-yl)methoxy)methyl)-N,N-dimethylbenzamide hydrochloride]	100	–
Cn1cncc1CN(Cc1ccc(Cl)cc1)Cc1ccc(C#N)c(-c2cccc3ccccc23)c1 [Example 40, 4-(((4-chlorobenzyl)((1-methyl-1H-imidazol-5-yl)methyl)amino)methyl)-2-(1-naphthyl)benzonitrile dihydrochloride]	100	–
Cc1cc(COC(c2ccc(C#N)c(-c3ccccc3C)c2)c2cncn2C)no1 (stereo not shown) [Example 177, 2′-methyl-5-((1-methyl-1H-imidazol-5-yl)((5-methyl-3-isoxazolyl)methoxy)methyl)(1,1′-biphenyl)-2-carbonitrile hydrochloride]	77	–
Cc1ccccc1-c1cc(C(OCc2ccccc2C#N)c2cncn2C)ccc1C#N (stereo not shown) [Example 126, 5-(((2-cyanobenzyl)oxy)(1-methyl-1H-imidazol-5-yl)methyl)-2′-methyl(1,1′-biphenyl)-2-carbonitrile hydrochloride]	92	–
Cc1ccccc1-c1cc(C(OCc2ccc(OCc3ccccc3)cc2)c2cncn2C)ccc1C#N (stereo not shown) [Example 155, 5-(((4-(benzyloxy)benzyl)oxy)(1-methyl-1H-imidazol-5-yl)methyl)-2′-methyl(1,1′-biphenyl)-2-carbonitrile hydrochloride]	92	–
Cl.Cl.Cn1cncc1C(OCc1ccc(C#N)nc1)c1ccc(C#N)c(-c2cccc3ccccc23)c1 (stereo not shown) [Example 274, 5-(((4-cyano-3-(1-naphthyl)phenyl)(1-methyl-1H-imidazol-5-yl)methoxy)methyl)-2-pyridinecarbonitrile dihydrochlolide]	–	% Inhibition at 10^−6M [1]: 100%
Cn1cncc1C(c1ccc(C#N)c(-c2cccc3ccccc23)c1)S(=O)(=O)Cc1ccc(C#N)cc1 (stereo not shown) [Example 71, 4-(((4-cyanobenzyl)sulfonyl)(1-methyl-1H-imidazol-5-yl)methyl)-2-(1-naphthyl)benzonitrile hydrochloride]	100	–
Cc1ccccc1-c1cc(C(OCc2ccc([N+](=O)[O-])cc2)c2cncn2C)ccc1C#N.Cl (stereo not shown) [Example 121]	–	% Inhibition at 10^−6M: 96%
Cn1cncc1C(OCc1ccc(C#N)c(Br)c1)c1ccc(C#N)c(-c2cccc3ccccc23)c1 (stereo not shown) [Example 75, 4-(((3-bromo-4-cyanobenzyl)oxy)(1-methyl-1H-imidazol-5-yl)methyl)-2-(1-naphthyl)benzonitrile hydrochloride]	100	–
Cn1cncc1C(OCc1ccc(Cl)cc1Cl)c1ccc(C#N)c(-c2cccc3ccccc23)c1 (stereo not shown) [Example 72, 4-(((2,4-dichlorobenzyl)oxy)(1-methyl-1H-imidazol-5-yl)methyl)-2-(1-naphthyl)benzonitrile hydrochloride]	100	–
Cn1cncc1CN(Cc1ccc(C(=O)O)cc1)c1ccc(C#N)c(-c2cccc3ccccc23)c1 [Example 269, 4-((4-cyano((1-methyl-1H-imidazol-5-yl)methyl)-3-(1-naphthyl)anilino)methyl)benzoic acid]	–	% Inhibition at 10^−6M [1]: 100%
Cn1cncc1C(OCc1cccc(C(F)(F)F)c1)c1ccc(C#N)c(-c2cccc3ccccc23)c1 (stereo not shown) [Example 68, 4-((1-methyl-1H-imidazol-5-yl)((3-(trifluoromethyl)benzyl)oxy)methyl)-2-(1-naphthyl)benzonitrile hydrochloride]	100	–
Cc1ccccc1-c1cc(C(OCc2ccc(I)cc2)c2cncn2C)ccc1C#N (stereo not shown) [Example 160, 5-(((4-iodobenzyl)oxy)(1-methyl-1H-imidazol-5-yl)methyl)-2′-methyl(1,1′-biphenyl)-2-carbonitrile hydrochloride]	96	–
Cc1ccccc1-c1cc(C(c2cncn2C)N2CCN(c3cccc(OC(F)(F)F)c3)C(=O)C2)ccc1C#N.Cl.Cl (stereo not shown) [Example 15]	–	% Inhibition at 10^−6M: 100%
Cc1ccccc1-c1cc(C(OCc2cc(Cl)nc(Cl)c2)c2cncn2C)ccc1C#N (stereo not shown) [Example 137, 5-(((2,6-dichloro-4-pyridinyl)methoxy)(1-methyl-1H-imidazol-5-yl)methyl)-2′-methyl(1,1′-biphenyl)-2-carbonitrile hydrochloride]	96	–
Cc1ccccc1-c1cc(C(OCc2ccc(-c3ccccc3C#N)cc2)c2cncn2C)ccc1C#N (stereo not shown) [Example 145, 5-(((2′-cyano(1,1′-biphenyl)-4-yl)methoxy)(1-methyl-1H-imidazol-5-yl)methyl)-2′-methyl(1,1′-biphenyl)-2-carbonitrile hydrochloride]	97	–
Cn1cncc1CN(Cc1ccc(C#N)c(-c2cccc3ccccc23)c1)Cc1cc(OC(F)(F)F)ccc1O [Example 207, 4-(((2-hydroxy-5-(trifluoromethoxy)benzyl)((1-methyl-1H-imidazol-5-yl)methyl)-amino)methyl)-2-(1-naphthyl)benzonitrile]	91	–
